Data on 22 molecules can be found in patent publication US20240182445A1 (ONO PHARMACEUTICAL CO., LTD., priority 2019, published 2024).

As usually defined, the IC50 is the point on the concentration scale where inhibition reaches its midpoint. High values mean lower potency, low ones higher potency.

In one assay the target is T1, human TREK-1 (Homo sapiens, UniProt O95069).
T1 construct: expressed in transfected cells
T1 sequence (O95069 1-426): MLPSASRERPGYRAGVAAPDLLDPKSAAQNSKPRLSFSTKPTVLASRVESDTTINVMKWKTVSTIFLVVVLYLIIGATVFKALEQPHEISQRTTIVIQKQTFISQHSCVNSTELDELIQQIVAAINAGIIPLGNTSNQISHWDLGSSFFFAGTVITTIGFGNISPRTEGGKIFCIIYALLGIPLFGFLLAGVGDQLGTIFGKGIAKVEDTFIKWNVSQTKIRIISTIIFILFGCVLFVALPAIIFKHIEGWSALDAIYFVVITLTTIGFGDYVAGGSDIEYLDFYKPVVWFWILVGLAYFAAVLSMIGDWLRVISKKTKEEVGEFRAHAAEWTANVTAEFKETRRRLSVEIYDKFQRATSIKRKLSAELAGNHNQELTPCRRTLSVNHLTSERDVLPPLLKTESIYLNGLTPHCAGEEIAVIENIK
As to the kind of experiment: TREK-1 Thallium (Tl+) flux assay, Method 1. The assay is classed as cell-based. To be noted: TREK-1 Thallium (Tl+) flux assay, Method 1. In a few lines: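 Readout: Thallos fluorescence ratio, taken 25 s post-thallium relative to the pre-thallium baseline average, then converted to % inhibition. Cells were CHO-K1 stably expressing human TREK-1, dye-loaded and exposed to test compound (vehicle 0.3% DMSO) for 10 min prior to thallium stimulation.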
`Cc1cc(-c2cnn(-c3ccc(F)cc3)c2)cnc1NC(=O)c1c(Cl)cnn1C1CC(C#N)C1` (stereo not shown) [Compound 394, 4-chloro-1-(3-cyanocyclobutyl)-N-(5-(1-(4-fluorophenyl)-1H-pyrazol-4-yl)-3-methylpyridin-2-yl)-1H-pyrazole-5-carboxamide] showed an IC50 of 1340 nM.

Regarding `Cc1cc(OCc2ccccc2)ccc1NC(=O)c1c(Cl)cnn1CC1CN(C(=O)C2COCCO2)CCO1` (stereo not shown) [Compound 412, 1-((4-(1,4-dioxane-2-carbonyl)morpholin-2-yl)methyl)-N-(4-(benzyloxy)-2-methylphenyl)-4-chloro-1H-pyrazole-5-carboxamide], the IC50 was determined as 3000 nM.

Still in this assay, the particulars now being: TREK-1 Thallium (Tl+) flux assay; no *^12 (Method 2) mark on these rows.
Molecule `CC(C)(C)OC(=O)N1CCC(n2ncc(Cl)c2C(=O)Nc2ncc(C#Cc3ccccc3)cc2F)C1` (stereo not shown) [Compound 237, tert-butyl 3-(4-chloro-5-((3-fluoro-5-(phenylethynyl)pyridin-2-yl)carbamoyl)-1H-pyrazol-1-yl)pyrrolidine-1-carboxylate] registered an IC50 of 370 nM.

Take `N#CCCCn1ncc(Cl)c1C(=O)Nc1c(F)cc(C#Cc2ccccc2)cc1F` [Compound 253, 4-chloro-1-(3-cyanopropyl)-N-(2,6-difluoro-4-(phenylethynyl)phenyl)-1H-pyrazole-5-carboxamide]: the IC50 came out at 410 nM.

As to `Cc1cc(C#Cc2ccccc2)cnc1NC(=O)c1c(Cl)cnn1[C@H]1CCN(C(=O)OC(C)(C)C)C1` [Compound 298, tert-butyl (S)-3-(4-chloro-5-((3-methyl-5-(phenylethynyl)pyridin-2-yl)carbamoyl)-1H-pyrazol-1-yl)pyrrolidine-1-carboxylate], the IC50 is 540 nM.

In the case of `CC(=O)N1CC2CC(C1)C2Cn1ncc(Cl)c1C(=O)Nc1ncc(C#Cc2ccccc2)cc1F` (stereo not shown) [Compound 326, 1-((3-acetyl-3-azabicyclo[3.1.1]heptan-6-yl)methyl)-4-chloro-N-(3-fluoro-5-(phenylethynyl)pyridin-2-yl)-1H-pyrazole-5-carboxamide], half-maximal inhibition (IC50) was put at 640 nM. This IC50 and that of the molecule before are within 1.5-fold of each other.

Take `Cc1cc(C#Cc2ccc(F)cc2)cnc1NC(=O)c1c(Cl)cnn1C1CCN(C(=O)C(C)C)C1` (stereo not shown) [Compound 305, 4-chloro-N-(5-((4-fluorophenyl)ethynyl)-3-methylpyridin-2-yl)-1-(1-isobutyrylpyrrolidin-3-yl)-1H-pyrazole-5-carboxamide]: the IC50 amounted to 570 nM.

On to `Cc1cc(C#Cc2ccccc2)cc(F)c1NC(=O)c1c(Cl)cnn1C[C@H]1COCCO1` [Compound 285, (S)-1-((1,4-dioxan-2-yl)methyl)-4-chloro-N-(2-fluoro-6-methyl-4-(phenylethynyl)phenyl)-1H-pyrazole-5-carboxamide], for which half-maximal inhibition (IC50) required 500 nM. This IC50 and that of the molecule before are within 1.5-fold of each other.

`Cc1cc(C#Cc2ccc(F)cc2)cnc1NC(=O)c1c(Cl)cnn1[C@H]1C[C@H](NC(=O)C(C)C)C1` [Compound 209, 4-chloro-N-(5-((4-fluorophenyl)ethynyl)-3-methylpyridin-2-yl)-1-(trans-3-isobutyramidocyclobutyl)-1H-pyrazole-5-carboxamide]: the IC50 came out at 310 nM. Compared with the last molecule, the IC50 is about 1.6-fold lower.

Staying with this assay, now noted: TREK-1 Thallium (Tl+) flux assay; values without footnote *12 are Method 1.
Turning to `CC(=O)N[C@H]1C[C@@H](n2ncc(Cl)c2C(=O)Nc2ncc(C#Cc3ccccc3)cc2F)C1` [Compound 94, 1-(cis-3-acetamidocyclobutyl)-4-chloro-N-(3-fluoro-5-(phenylethynyl)pyridin-2-yl)-1H-pyrazole-5-carboxamide], the IC50 was found to be 180 nM.

For the molecule `CC(=O)N[C@H]1CC[C@H](n2ncc(Cl)c2C(=O)Nc2ncc(C#Cc3ccc(F)cc3)cc2C)CC1` [Compound 193, 1-(trans-4-acetamidocyclohexyl)-4-chloro-N-(5-((4-fluorophenyl)ethynyl)-3-methylpyridin-2-yl)-1H-pyrazole-5-carboxamide], it took 290 nM to reach half-maximal inhibition (IC50).

Molecule `CC(=O)N1CC[C@H](n2ncc(Cl)c2C(=O)Nc2ncc(C#Cc3ccccc3)cc2C)C1` [Compound 128, (S)-1-(1-acetylpyrrolidin-3-yl)-4-chloro-N-(3-methyl-5-(phenylethynyl)pyridin-2-yl)-1H-pyrazole-5-carboxamide] yielded an IC50 of 220 nM.

The molecule `O=C(Nc1c(F)cc(C#Cc2ccccc2)cc1F)c1c(Cl)cnn1C[C@@H]1CCOC1` [Compound 161] had a half-inhibitory concentration (IC50) of 260 nM.

Turning to `O=C(Nc1ncc(C#Cc2ccccc2)cc1F)c1c(Cl)cnn1C1CCOCC1` [Compound 51, 4-chloro-N-(3-fluoro-5-(phenylethynyl)pyridin-2-yl)-1-(tetrahydro-2H-pyran-4-yl)-1H-pyrazole-5-carboxamide], the IC50 is 140 nM.

Molecule `Cc1cc(C#Cc2ccccc2)cnc1NC(=O)c1c(Cl)cnn1-c1ccc2c(cnn2C)c1` [Compound 22, 4-chloro-1-(1-methyl-1H-indazol-5-yl)-N-(3-methyl-5-(phenylethynyl)pyridin-2-yl)-1H-pyrazole-5-carboxamide] showed an IC50 of 80 nM.

Regarding `Cc1cc(C#Cc2ccccc2)cnc1NC(=O)c1c(Cl)cnn1[C@H]1C[C@H](NC(=O)C(C)C)C1` [Compound 183, 4-chloro-1-(trans-3-isobutyramidocyclobutyl)-N-(3-methyl-5-(phenylethynyl)pyridin-2-yl)-1H-pyrazole-5-carboxamide], 280 nM corresponded to half-maximal inhibition (IC50).

`Cc1cc(C#Cc2cccs2)cnc1NC(=O)c1c(Cl)cnn1CC1CCN(C(=O)C2COCCO2)CC1` (stereo not shown) [Compound 103, 1-((1-(1,4-dioxane-2-carbonyl)piperidin-4-yl)methyl)-4-chloro-N-(3-methyl-5-(thiophen-2-ylethynyl)pyridin-2-yl)-1H-pyrazole-5-carboxamide] had an IC50 of 190 nM.

`Cc1cc(C#Cc2cccs2)cnc1NC(=O)c1c(Cl)cnn1C1CC2(C1)CN(C(=O)C1COCCO1)C2` (stereo not shown) [Compound 97, 1-(2-(1,4-dioxane-2-carbonyl)-2-azaspiro[3.3]heptan-6-yl)-4-chloro-N-(3-methyl-5-(thiophen-2-ylethynyl)pyridin-2-yl)-1H-pyrazole-5-carboxamide]: half-maximal inhibition (IC50) required 180 nM.

Regarding `CC(C)(C)C(=O)N1CCC(n2ncc(Cl)c2C(=O)Nc2ncc(C#Cc3ccccc3)cc2F)CC1` [Compound 100, 4-chloro-N-(3-fluoro-5-(phenylethynyl)pyridin-2-yl)-1-(1-pivaloylpiperidin-4-yl)-1H-pyrazole-5-carboxamide], the IC50 stood at 190 nM. The IC50 values of the last two molecules are within 1.5-fold of each other.

`CC(=O)N1CCC(Cn2ncc(Cl)c2C(=O)Nc2ncc(C#Cc3cccc(F)c3)cc2C)CC1` [Compound 150, 1-((1-acetylpiperidin-4-yl)methyl)-4-chloro-N-(5-((3-fluorophenyl)ethynyl)-3-methylpyridin-2-yl)-1H-pyrazole-5-carboxamide] returned an IC50 of 240 nM.

`CC(=O)N1CC[C@H](n2ncc(Cl)c2C(=O)Nc2ncc(C#Cc3ccccc3)cc2C)C[C@@H]1C` (single isomer, unassigned) [Compound 114, 1-[(2S,4S)-1-acetyl-2-methylpiperidin-4-yl]-4-chloro-N-[3-methyl-5-(phenylethynyl)pyridin-2-yl]-1H-pyrazole-5-carboxamide or 1-[(2R,4R)-1-acetyl-2-methylpiperidin-4-yl]-4-chloro-N-[3-methyl-5-(phenylethynyl)pyridin-2-yl]-1H-pyrazole-5-carboxamide] yielded an IC50 of 200 nM. The IC50 values of the last two molecules are within 1.5-fold of each other.

In turn, `CC(=O)N1CC(n2ncc(Cl)c2C(=O)Nc2ncc(C#Cc3ccccc3)cc2F)C1` [Compound 40, 1-(1-acetylazetidin-3-yl)-4-chloro-N-(3-fluoro-5-(phenylethynyl)pyridin-2-yl)-1H-pyrazole-5-carboxamide] came in with a 50% inhibitory concentration (IC50) of 130 nM.
